In brackets after ≈: the same amount, converted by molar mass. Activity calls are given as the source filed them. No cut-off for these calls is given here.

From ChEMBL document CHEMBL3044634, “Synthesis and evaluation of antibacterial and antifungal activities of new (Z)-3-bromo-4-(1,3-diaryl-1H-pyrazol-4-yl)but-3-en-2-ones and 4-(3-methyl-1-phenyl-1H-pyrazol-5-yl)-1,3-diaryl-1H-pyrazoles” (2013) come the findings set out here.

Assay [1] has as its system Bacillus subtilis. Description: Antibacterial activity against Bacillus subtilis MTCC 121 at 2 mg/ml after 24 hr by agar well diffusion method. Format: functional. The settings on record: MTCC 121, 24 h, read-out: DIZ. (In general: A growth-free zone around the sample is the usual read-out of agar diffusion tests.)
In assay [2] the test system is Bacillus subtilis. Description: Antibacterial activity against Bacillus subtilis MTCC 121 after 24 hr by macrodilution tube method. Format: functional. To be noted: MTCC 121, 24 h.
Assay [3] relates to Staphylococcus aureus. Description: Antibacterial activity against Staphylococcus aureus MTCC 96 at 2 mg/ml after 24 hr by agar well diffusion method. Format: functional. The settings on record: MTCC 96, 24 h, read-out: DIZ.
In assay [4] the test system is Staphylococcus aureus. In words: Antibacterial activity against Staphylococcus aureus MTCC 96 after 24 hr by macrodilution tube method. Type of assay: functional. To be noted: MTCC 96, 24 h.
For another assay, the system named is Aspergillus flavus. Description: Growth inhibition of Aspergillus flavus at 4 mg/ml after 7 days by poisoned-food technique. Type of assay: functional. To be noted: 168 h, read-out: GI.
Another assay relates to Aspergillus niger. In words: Growth inhibition of Aspergillus niger at 4 mg/ml after 7 days by poisoned-food technique. Format: functional. The settings on record: 168 h, read-out: GI.
Another assay relates to Escherichia coli. In words: Antibacterial activity against Escherichia coli MTCC 1652 at 2 mg/ml after 24 hr by agar well diffusion method. Format: functional, organism-based.
Another assay relates to Pseudomonas aeruginosa. Description: microbe, parasite or virus in culture. To be noted: MTCC 741, 24 h, read-out: DIZ.

Description for Pseudomonas aeruginosa: Antibacterial activity against Pseudomonas aeruginosa MTCC 741 at 2 mg/ml after 24 hr by agar well diffusion method

The term MIC denotes the lowest concentration that inhibits growth of the organism. A high value points to a less susceptible organism. Take `COc1ccc(-c2nn(-c3ccccc3)cc2-c2cc(C)nn2-c2ccccc2)cc1`: the zone of inhibition at 2000 µg/mL came out at 14 mm in the assay on Bacillus subtilis [1] and 15.3 mm with Staphylococcus aureus [3]. Moreover, the MIC worked out at 256 µg/mL (≈ 630 µM) in the assay on Bacillus subtilis [2] and 128 µg/mL (≈ 315 µM) against Staphylococcus aureus [4]. Further, the values for the inhibition of growth at 4000 µg/mL in the assay on Aspergillus flavus and with Aspergillus niger were 44.4% and 41.1%, respectively. For the same compound, the result with Escherichia coli was inactive.

As to `COc1ccc(-c2nn(-c3ccc([N+](=O)[O-])cc3)cc2/C=C(\Br)C(C)=O)cc1`, the zone of inhibition at 2000 µg/mL with Bacillus subtilis [1] was determined as 16 mm; with Staphylococcus aureus [3], 15.6 mm. The MIC with Bacillus subtilis [2] and with Staphylococcus aureus [4] was 128 µg/mL (≈ 289 µM) in each case. Further, the figures for the inhibition of growth at 4000 µg/mL with Aspergillus flavus and in the assay with Aspergillus niger were 50% and 45.5%, respectively. In addition, the result in the assay with Escherichia coli was inactive.

`Cc1cc(-c2cn(-c3ccccc3)nc2-c2ccc([N+](=O)[O-])cc2)n(-c2ccccc2)n1`: the zone of inhibition at 2000 µg/mL with Bacillus subtilis [1] came to 18.6 mm; with Staphylococcus aureus [3] it was 17.6 mm. Besides, the MIC against Bacillus subtilis [2] and against Staphylococcus aureus [4] was 64 µg/mL (≈ 152 µM) throughout. The inhibition of growth at 4000 µg/mL with Aspergillus flavus worked out at 53.3%; with Aspergillus niger, 51.1%. In addition, the result with Escherichia coli was inactive.

In the case of `CC(=O)/C(Br)=C/c1cn(-c2ccccc2)nc1-c1ccccc1`, the zone of inhibition at 2000 µg/mL is 16.6 mm in the assay with Bacillus subtilis [1] and 15.3 mm in the assay on Staphylococcus aureus [3]. Besides, the MIC in the assay with Bacillus subtilis [2] and in the assay with Staphylococcus aureus [4] was 128 µg/mL (≈ 349 µM) each time. The figures for the inhibition of growth at 4000 µg/mL in the assay on Aspergillus flavus and in the assay on Aspergillus niger were 48.8% and 51.1%, respectively. Also, the result with Escherichia coli was inactive.

Regarding `Cc1cc(-c2cn(-c3ccc([N+](=O)[O-])cc3)nc2-c2ccc(F)cc2)n(-c2ccccc2)n1`, the zone of inhibition at 2000 µg/mL amounted to 15.6 mm in the assay with Bacillus subtilis [1] and 13.6 mm with Staphylococcus aureus [3]. Besides, the MIC amounted to 128 µg/mL (≈ 291 µM) with Bacillus subtilis [2] and 256 µg/mL (≈ 583 µM) against Staphylococcus aureus [4]. Besides, the inhibition of growth at 4000 µg/mL with Aspergillus flavus came out at 47.7%; with Aspergillus niger, 44.4%. The result in the assay with Escherichia coli was inactive.

For `CC(=O)/C(Br)=C/c1cn(-c2ccccc2)nc1-c1ccc(F)cc1`, the zone of inhibition at 2000 µg/mL was 21.6 mm in the assay with Bacillus subtilis [1] and 20.6 mm with Staphylococcus aureus [3]. The MIC in the assay with Bacillus subtilis [2] and in the assay with Staphylococcus aureus [4] was 32 µg/mL (≈ 83.1 µM) in each case. For the same compound, the inhibition of growth at 4000 µg/mL with Aspergillus flavus was 55.5%; with Aspergillus niger, 53.3%. Moreover, the outcome in the assay on Escherichia coli was inactive.

`COc1ccc(-c2nn(-c3ccccc3)cc2/C=C(\Br)C(C)=O)cc1`: the zone of inhibition at 2000 µg/mL in the assay with Bacillus subtilis [1] turned out to be 16.3 mm; in the assay with Staphylococcus aureus [3], 15.6 mm. Besides, the MIC with Bacillus subtilis [2] and against Staphylococcus aureus [4] was 128 µg/mL (≈ 322 µM) in each case. Moreover, the inhibition of growth at 4000 µg/mL in the assay on Aspergillus flavus worked out at 44.4%; in the assay on Aspergillus niger, 45.5%. In the assay on Escherichia coli, the outcome was inactive.

Consider `Cc1cc(-c2cn(-c3ccccc3)nc2-c2ccc(Br)cc2)n(-c2ccccc2)n1`, for which the values for the zone of inhibition at 2000 µg/mL in the assay with Bacillus subtilis [1] and in the assay on Staphylococcus aureus [3] were 20.6 mm and 19.3 mm, respectively. The MIC in the assay with Bacillus subtilis [2] worked out at 32 µg/mL (≈ 70.3 µM); in the assay with Staphylococcus aureus [4], 64 µg/mL (≈ 141 µM). The inhibition of growth at 4000 µg/mL in the assay on Aspergillus flavus amounted to 52.2%; in the assay on Aspergillus niger, 55.5%. For the same compound, the result with Escherichia coli was inactive.

On to `O=C(O)c1cn(C2CC2)c2cc(N3CCNCC3)c(F)cc2c1=O` [CIPROFLOXACIN], for which the zone of inhibition at 2000 µg/mL in the assay on Bacillus subtilis [1] was 24 mm; with Staphylococcus aureus [3], 26 mm; in the assay on Pseudomonas aeruginosa, 25.3 mm. Besides, the MIC with Bacillus subtilis [2] and in the assay with Staphylococcus aureus [4] was 5 µg/mL (≈ 15.1 µM) each time.

Consider `CC(=O)/C(Br)=C/c1cn(-c2ccccc2)nc1-c1ccc(Cl)cc1`, for which the zone of inhibition at 2000 µg/mL amounted to 16.3 mm in the assay on Bacillus subtilis [1] and 14.6 mm in the assay on Staphylococcus aureus [3]. Also, the MIC stood at 128 µg/mL (≈ 319 µM) in the assay with Bacillus subtilis [2] and 256 µg/mL (≈ 637 µM) against Staphylococcus aureus [4]. Moreover, the inhibition of growth at 4000 µg/mL in the assay with Aspergillus flavus is 45.5%; in the assay with Aspergillus niger, 50%. In addition, the result in the assay with Escherichia coli was inactive.

For the compound `Cc1cc(-c2cn(-c3ccccc3)nc2-c2ccccc2)n(-c2ccccc2)n1`, the zone of inhibition at 2000 µg/mL in the assay with Bacillus subtilis [1] turned out to be 15.6 mm; with Staphylococcus aureus [3], 16.3 mm. The MIC against Bacillus subtilis [2] and against Staphylococcus aureus [4] was 128 µg/mL (≈ 340 µM) in each case. Further, the inhibition of growth at 4000 µg/mL in the assay with Aspergillus flavus was found to be 46.6%; with Aspergillus niger, 44.4%. Also, in the assay with Escherichia coli, the outcome was inactive.
